Our source for the ED50 values is US5041445A, “3-[1-thiazolidinylbutyl-4-piperazinyl]-1H-indazoles” (Hoechst-Roussel Pharmaceuticals Incorporated, priority 1990, dated 1991).

Like-named read-outs stand apart in the source and are kept apart here.

The test concerns apomorphine climbing. The test is described as follows: Climbing Mouse Assay (CMA), antagonism of apomorphine-induced climbing. It counts as in vivo, CK-1 male mice. The note with it: linear regression, read-out: Climbing Mice Assay ED50. From the text:
The compounds of the present invention are potentially useful as antipsychotic agents as determined in the Climbing Mouse Assay (CMA).
The Climbing Mouse Assay is described by P. Protais, et al., Psychopharmacol., 50, 1 (1976) and B. Costall, Eur. J. Pharmacol., 50, 39 (1978).
The subject CK-1 male mice (23-27 grams) are group-housed under standard laboratory conditions. The mice are individually placed in wire mesh stick cages (4"×4" by 10") and are allowed one hour for adaptation and exploration of the new environment. The apomorphine is injected subcutaneously at 1.5 mg/kg, a dose causing climbing in all subjects for 30 minutes. Compounds to be tested for antipsychotic activity are injected intraperitoneally (i.p.) 30 minutes prior to the apomorphine challenge at a screening dose of 10 mg/kg.
For evaluation of climbing, 3 readings are taken at 10, 20 and 30 minutes after apomorphine administration according to the following scale: […]
______________________________________
4 paws on bottom (no climbing)
2 paws on the wall (rearing)
4 paws on the wall (full climb)
Mice consistently climbing before the injection of apomorphine are discarded.
With full-developed apomorphine climbing, the animals are hanging onto the cage walls, rather motionless, over longer periods of time. By contrast, climbs due to mere motion stimulation usually last only a few seconds.
The climbing scores are individually totaled (maximum score: 6 per mouse over 3 readings) and the total score of the control group (vehicle intraperitoneally; apomorphine subcutaneously) is set to 100%. ED50 values with 95% confidence limits, calculated by linear regression analyses of some of the compounds of this invention are presented in Table 1.

The mark [1] stands for this setting: ip, 30 minutes prior to apomorphine 1.5 mg/kg s.c.

As a reminder, the ED50 is the midpoint of the dose-response relation. As for `CC1(C)SCN(CCCCN2CCN(c3n[nH]c4ccccc34)CC2)C1=O` [3-(4-(1-[1H-Indazol-3-yl]-4-piperazinyl)-butyl)-5,5-dimethyl-4-thiazolidinone], the median effective dose (ED50) under setting [1] is 1.3 mg/kg.

For `O=C1N(CCCCN2CCN(c3n[nH]c4ccccc34)CC2)CSC12CCCC2` [3-(4-(1-[1H-Indazol-3-yl]-4-piperazinyl)butyl)-1-thia-3-azaspiro[4.4]nonan-4-one], the median effective dose (ED50) amounted to 1.3 mg/kg under setting [1] and 2.7 mg/kg (po, apomorphine 1.5 mg/kg s.c.).

As for `CC1SCN(CCCCN2CCN(c3n[nH]c4cc(F)ccc34)CC2)C1=O` (centres unmarked) [3-{4-[1-(6-Fluoro-1H-indazol-3-yl)-piperazinyl]butyl}-5-methyl-4-thiazolidinone], the ED50 under setting [1] was 0.11 mg/kg.

With `O=C1N(CCCCN2CCN(c3n[nH]c4cc(F)ccc34)CC2)CSC12CCCCC2` [3-{4-[1-(6-Fluoro-1H-indazol-3-yl)-4-piperazinyl]butyl}-1-thia-3-azaspiro[4.5]decan-4-one], the ED50 is, setting by setting: under setting [1], 0.04 mg/kg; (po, apomorphine 1.5 mg/kg s.c.) 0.67 mg/kg.

With `O=C1N(CCCCN2CCN(c3n[nH]c4ccccc34)CC2)CSC12CCCCC2` [3-(4-(1-[1H-indazol-3-yl]-4-piperazinyl)butyl)-1-thia-3-azaspiro[4.5]decan-4-one], the ED50 under setting [1] came out at 0.65 mg/kg.

With `CN1CCN(C2=Nc3cc(Cl)ccc3Nc3ccccc32)CC1` [Clozapine, reference compound], the 50% effective dose (ED50) under setting [1] was determined as 8.1 mg/kg.
